Each structure is given as a SMILES string. Some results are limits rather than exact numbers.

Assay type in all cases: functional
The subject of one test is SF-268. Briefly: Antiproliferative activity against human SF268 cell line.
In the next test the test system is MDA-MB-435. Briefly: Antiproliferative activity against human MDA-MB-435 cell line.
In another test the test system is HOP-62. Briefly: Antiproliferative activity against human HOP62 cell line.
Another test concerns OVCAR-3. The experiment in a line: Antiproliferative activity against human OVCAR-3 cell line.
In another test the test system is HCT-116. Briefly: Antiproliferative activity against human HCT116 cell line.
The test system of another test is UACC-62. The experiment in a line: Antiproliferative activity against human UACC62 cell line.
In another test the test system is DU-145. Briefly: Antiproliferative activity against human DU145 cell line.
Another test deals with SN12C. Briefly: Antiproliferative activity against human SN12C cell line.

The term GI50 denotes the concentration at which growth is held to half of that of the control. `O=C1c2ccccc2-c2c1c1ccccc1c(=O)n2CCN1CCOCC1` returned a GI50 in the test with SF-268 of 85.1 µM.

Turning to `CN(C)CCCn1c2c(c3cc4c(cc3c1=O)OCO4)C(=O)c1ccccc1-2`, the GI50 in the test on MDA-MB-435 is 3.02 µM; with HOP-62, less than 0.01 µM; in the test on OVCAR-3, 2.63 µM; in the test with SF-268, 2.69 µM; in the test with HCT-116 it was less than 0.01 µM; in the test with UACC-62 it was 0.3 µM. The GI50 was determined as 2.04 µM in the test with DU-145 and 0.023 µM in the test on SN12C.

On to `O=C1c2ccccc2-c2c1c1ccccc1c(=O)n2CCCn1ccnc1`, for which the GI50 with HOP-62 is 2.69 µM; in the test with OVCAR-3, 1.66 µM; in the test with SF-268 it was 2.34 µM; with HCT-116, 1.41 µM; in the test on UACC-62, 0.79 µM; with DU-145, 1.41 µM. Further, in the test on SN12C, growth was halved (GI50) at 1.66 µM.

As to `O=C1c2ccccc2-c2c1c1ccc([N+](=O)[O-])cc1c(=O)n2CCN1CCOCC1`, the GI50 was greater than 100 µM in the test on MDA-MB-435; 52.5 µM in the test with HOP-62; greater than 100 µM in the test on OVCAR-3; greater than 100 µM in the test with HCT-116; 83.2 µM with UACC-62; 61.7 µM with DU-145. In the test on SN12C, this compound came in with a concentration for 50% growth inhibition (GI50) of 58.9 µM.

`O=C1c2ccccc2-c2c1c1ccccc1c(=O)n2CCNCCO` returned a GI50 with SF-268 of 1.65 µM.

`COc1cc2c3c(n(CCN4CCOCC4)c(=O)c2cc1OC)-c1ccccc1C3=O`: the GI50 with MDA-MB-435 is greater than 100 µM; with HOP-62, 89.1 µM; in the test with OVCAR-3 it was greater than 100 µM; with SF-268, greater than 100 µM; with HCT-116, 60.3 µM; in the test with UACC-62, 56.2 µM. Besides, the GI50 with DU-145 and in the test on SN12C was greater than 100 µM each time.

As to `COc1cc2c3c(oc(=O)c2cc1OC)-c1ccccc1C3=O`, the GI50 in the test on MDA-MB-435, with OVCAR-3, in the test with SF-268, with HCT-116, in the test with UACC-62 and with DU-145 was 100 µM in each case. Moreover, in the test with SN12C, the GI50 is 100 µM.

For `COc1cc2c(=O)oc3c(c2c(OC)c1OC)C(=O)c1ccccc1-3`, the GI50 with MDA-MB-435 was greater than 100 µM; in the test on HOP-62, 53.7 µM; with OVCAR-3 it was greater than 100 µM; with SF-268 it was greater than 100 µM; in the test on HCT-116, greater than 100 µM; with UACC-62, greater than 100 µM. Moreover, the GI50 with DU-145 and with SN12C was greater than 100 µM each time.

Regarding `O=C1c2ccccc2-c2c1c1ccc([N+](=O)[O-])cc1c(=O)n2CCCn1ccnc1`, in the test on SF-268, the GI50 stood at 0.016 µM.

For the compound `O=C1c2ccccc2-c2oc(=O)c3cc4c(cc3c21)OCO4`, the GI50 with MDA-MB-435 is greater than 100 µM; with HOP-62, 18.2 µM; in the test on OVCAR-3, greater than 100 µM; in the test with SF-268, greater than 100 µM; with HCT-116 it was 47.9 µM; in the test with UACC-62, 25.1 µM. The GI50 in the test with DU-145 and with SN12C was greater than 100 µM throughout.

Take `CN(C)CCCn1c2c(c3ccc([N+](=O)[O-])cc3c1=O)C(=O)c1ccccc1-2`: the GI50 in the test with MDA-MB-435 was greater than 100 µM; with OVCAR-3, 25.7 µM; in the test on HCT-116, 6.46 µM; with UACC-62 it was 7.08 µM; in the test with SN12C, 4.17 µM.

On to `COc1cc2c3c(n(CCCN(C)C)c(=O)c2cc1OC)-c1ccccc1C3=O`, for which the GI50 in the test with MDA-MB-435 was 7.08 µM; in the test on OVCAR-3 it was 5.89 µM; with SF-268, 6.17 µM; with HCT-116, 2.45 µM; with UACC-62, 6.61 µM; in the test with DU-145, 4.47 µM. In the test with SN12C, this compound registered a GI50 of 11 µM.

Regarding `O=C1c2ccccc2-c2oc(=O)c3cc([N+](=O)[O-])ccc3c21`, the GI50 with MDA-MB-435, in the test with HOP-62, in the test on OVCAR-3, with SF-268, in the test on HCT-116 and with UACC-62 was greater than 100 µM in each case. In addition, the GI50 in the test with DU-145 and in the test with SN12C was greater than 100 µM each time.

`COc1cc2c3c(n(CCCn4ccnc4)c(=O)c2cc1OC)-c1ccccc1C3=O` showed a GI50 in the test on SF-268 of less than 0.01 µM.

On to `CC[C@@]1(O)C(=O)OCc2c1cc1n(c2=O)Cc2cc3ccccc3nc2-1` [CAMPTOTHECIN], for which the GI50 in the test on SF-268 worked out at 0.01 µM.

The values are drawn from ChEMBL document CHEMBL1146133, “Synthesis of benz[d]indeno[1,2-b]pyran-5,11-diones: versatile intermediates for the design and synthesis of topoisomerase I inhibitors” (2006).
